Legend:
[1] = tested on: prototrophic yeast strain (CEN.PK113-7D); assay: Propidium iodide fluorescence-based CLS method in yeast (incl. high-throughput screening); format: cell-based, Saccharomyces cerevisiae;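 for PI intensity: untreated reference is eight DMSO and water control wells per plate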
Procedure, shortened: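 CEN.PK113-7D aged in SD medium at 30 °C with compounds (rapamycin 0–10 nM; sugars 0–8 mM; screen at single concentrations). At each age point cells were stained with 5 μg/mL PI for 15 min; fluorescence was normalized to OD600, background-subtracted, and survival scaled against boiled-cell control.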

[2] = tested on: prototrophic yeast strain (CEN.PK113-7D); assay: Yeast outgrowth in YPD liquid medium (CLS of aged cells); format: cell-based, Saccharomyces cerevisiae
Procedure, shortened: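 Cultures aged at 30 °C in SD medium with double-diluted rapamycin (0–10 nM) or sugars/polyols (0–8 mM). On day 14, 3 µL of culture was transferred into 200 µL YPD and outgrowth read as OD600. Survival expressed relative to day 1 outgrowth (100%).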

HEK293 cells = assay: CLS in human cells, PrestoBlue outgrowth assay (HEK293); format: cell-based
Method: Human embryonic kidney 293 (HEK293) cells (ATCC, Manassas, Virginia, United States of America), lung epithelial (A549) cells (ATCC, Manassas, Virginia, United States of America) and fibroblast (IMR90) cells (ATCC, Manassas, Virginia, United States of America) were cultured in the standard D10 medium, consisting of high-glucose DMEM (HyClone, Cytiva, Marlborough, Massachusetts, USA) supplemented with 10% Fetal Bovine Serum (FBS) (Gibco™, ThermoFisher Scientific, Waltham, Massachusetts, USA) and 1% Penicillin Streptomycin Solution (Gibco™, ThermoFisher Scientific, Waltham, Massachusetts, USA). All cells were cultured in a humidified incubator with 5% CO2 at 37° C.
The seeding, washing and trypsinization process was performed similarly to that for the crystal violet assay. 80,000 cells were seeded in a 96-well culture plate with or without compound treatment. At different age time points after seeding, floating dead cells were aspirated with exhausted D10 medium, cells were gently washed with 1×PBS to remove D10 medium residue and treated with 0.2 mL of 0.25% trypsin. […] After one day of growth in a 37° C. incubator with 5% CO2, the cell number was assessed with PrestoBlue™ Cell Viability Reagent (Invitrogen™, Waltham, Massachusetts, USA) according to the manufacturer's protocol. […] After incubation in a 37° C. incubator with 5% CO2 for 3 to 4 hours, reading was taken with a BioTek Synergy MX microplate reader (BioTek, Winooski, Vermont, United States) at excitation and emission wavelengths of 560 nm and 590 nm, respectively.
PrestoBlue (PB) is a resazurin-based reagent used to detect cell viability and traces of cytotoxicity in the medium. It produces results that can be detected both colorimetrically and fluorometrically. […] The resazurin component is reduced to form resorufin by live cells, resulting in a visible change from blue colour to red colour in the reagent, at the same time developing fluorescence, which can be easily detected by a microplate reader. […] The PB assay was easy to perform as the reagent is a commercially available as ready-to-use solution.

With OC[C@H]1O[C@H](CO)[C@@H](O)[C@@H]1O [2,5-AM, 2,5-anhydro-D-mannitol] the “survival of aged cells” value ([1]; 4 mM and 8 mM, Day 4, without compound approx. 50%) was “approximately 80%”, the “survival of aged cells” value ([1]; Day 7, without compound less than 20%) was “approximately 75%” and the “Yeast CLS increase” value ([1]; concentration tested 300 μg/mL, Yes/No call of the screen) was “Yes”. The PI intensity ([1]; concentration tested 300 μg/mL, solvent water, age point Day 7) was 36,240.0, the “antiaging activity in outgrowth assays” value ([2]; Day 1, 4, 7 and 10, FIGS. 6 to 8) was “verified by outgrowth assays” and the Outgrowth ([2]; concentration tested 300 μg/mL, OD600 nm after 24 h in YPD, age point day 14) was 1.3. The “more viable cells compared to the untreated group” value (HEK293 cells; 2.5 mM, HEK293) was 76.31%, the “more surviving cells relative to the untreated group” value (HEK293 cells; 5 mM, HEK293) was 123.7% and the “CLS of HEK293 cells by outgrowth method” value (HEK293 cells; different concentrations, Day 4 normalized to Day 1 (FIG. 19)) was “Trends of lifespan extension”.

— patent publication US20250161338A1, “Compounds for Anti-aging Intervention” (AGENCY FOR SCIENCE, TECHNOLOGY AND RESEARCH, priority 2022, published 2025)
